The record followed here is patent publication US4252804A, “Therapeutically useful 3,4,5-trimethoxybenzene derivatives” (Metabio-Joullie, priority 1977, dated 1981).

What all share (type): in vivo
In data set [1] the test system is spontaneous motor activity. Description: Action on spontaneous motor activity in the mouse (BOISSIER). As to conditions: po, 0.5 h, 30 minutes after administration, vs control, read-out: Percentage variation in motor activity; for change in vivo at 170 mg/kg: 170 mg/kg p.o.; for change in vivo at 375 mg/kg: 375 mg/kg p.o.; for change in vivo at 250 mg/kg: 250 mg/kg p.o.; for change in vivo at 500 mg/kg: 500 mg/kg p.o. How it is done:
2.1--Action on spontaneous motor activity in the mouse
30 minutes after administration per os of the test compounds, the mice (groups of 12 animals) are installed in individual cages in a BOISSIER activity measuring cupboard and move about before two photoelectric cells placed according to the rectangular coordinates. Meters register the movement during 20 minutes.

Data set [2] concerns convulsant effects of strychnine. Description: Action against the convulsant effects of strychnine in the mouse. The conditions noted are these: 30 minutes before strychnine 1.5 mg/kg s.c. How it is done:
(§1) 2.3--Test on the action against the convulsant effects of electric shock and of strychnine in the mouse
(§2) 30 minutes after administration of the compounds to groups of 10 animals, there is investigated the protection induced against:
convulsive crisis and death provoked by injection of strychnine at a limiting lethal dose of 1.5 mg/kg s.c.
(§3) The results are expressed as a percentage of protection based on a control group which have only received the administration vehicle for the compounds.

The subject of data set [3] is pentobarbital hypnosis time. In words: Action on the pentobarbital hypnosis time in the mouse. As to conditions: po, 0.5 h, 30 minutes before pentobarbital 50 mg/kg i.v., vs control, read-out: Percentage variation in pentobarbital hypnosis time; for change in vivo at 170 mg/kg: 170 mg/kg p.o.; for change in vivo at 375 mg/kg: 375 mg/kg p.o.; for change in vivo at 250 mg/kg: 250 mg/kg p.o.; for change in vivo at 500 mg/kg: 500 mg/kg p.o. From the text:
2.2--Action on the pentobarbital hypnosis time in the mouse
The hypnosis time of each mouse is counted in minutes from the moment when the animal may be placed without resistance on its back until that when it spontaneously gets back on its feet.

The nature of data set [4]: Acute toxicity for oral administration in mice. As to conditions: mouse, in vivo, suspension in 10% gum arabic. How it is done: 1--ACUTE TOXICITY FOR ORAL ADMINISTRATION IN MICE
The compounds are administered orally in increasing doses in suspension in a 10% gum arabic solution to groups of 5 .female. mice of mean weight 25 g. The 50% lethal doses (LD 50) are calculated by the method of KARBER and BEHRENS (Arch. Exp. Path. Pharmakol. 1935, 177, 379-388).
The LD 50's found are summarised in Table IV below and indicate that the tested compounds have low toxicity.

Data set [5] relates to convulsant effects of electric shock. Description: Action against the convulsant effects of electric shock in the mouse. As to conditions: po, 0.5 h, 30 minutes before shock, 13 to 16 mA for 0.1 sec, read-out: Percentage protection against the convulsant effects of the electric shock; for responders at 500 mg/kg: 500 mg/kg p.o. As for the experimental part:
as §1, §2
tonic crisis (extension of rear feet) provoked by supramaximal transcranial electric stimulation (13 to 16 mA for 0.1 sec).
as §3

Molecules are shown by their SMILES. Some results are limits rather than exact numbers.

As to `COc1cc(NC(=O)N2CCN(C)CC2)cc(OC)c1OC` [compound 759], the change in vivo at 400 mg/kg is -45% in data set [1] (400 mg/kg p.o.) and 22% in data set [3] (400 mg/kg p.o.). Moreover, the “Percentage protection against the convulsant effects of strychnine” value (“Percentage protection” for short) in data set [2] (400 mg/kg p.o.) turned out to be 55%. The LD50 (usually the dose expected to kill half of the subjects tested) in data set [4] (po) was 4000 mg/kg.
Turning to `COc1cc(NC(=O)N(C)C)cc(OC)c1OC` [compound 775], the change in vivo at 170 mg/kg is -40% in data set [1] and 149% in data set [3]. Further, the “Percentage protection” value in data set [2] (170 mg/kg p.o.) is reported as 33%. In addition, the LD50 in data set [4] (po) came to 1700 mg/kg.
`COc1cc(NC(=O)N2CCCCC2)cc(OC)c1OC` [compound 776]: the results for the change in vivo at 375 mg/kg in data set [1] and in data set [3] were -48% and 130%, respectively. In addition, the “Percentage protection” value in data set [2] (375 mg/kg p.o.) stood at 44%. Also, the LD50 in data set [4] (po) came to 3750 mg/kg.
Consider `COc1cc(NCC(=O)N2CCN(C)CC2)cc(OC)c1OC` [compound 786], for which the change in vivo at 170 mg/kg in data set [1] is -20%; in data set [3], 172%. This molecule also showed an LD50 in data set [4] (po) of 1700 mg/kg.
Turning to `COc1cc(NC(=O)CN2CCOCC2)cc(OC)c1OC` [compound 787], the change in vivo at 250 mg/kg in data set [1] was -84%; in data set [3] it was 141%. In data set [4] (po), this molecule gave an LD50 of 2500 mg/kg.
Consider `COc1cc(NC(=O)N2CC(C)OC(C)C2)cc(OC)c1OC` (centres unmarked) [compound 788], for which the change in vivo at 135 mg/kg in data set [1] (135 mg/kg p.o.) was -34%. Further, the LD50 in data set [4] (po) was determined as 1350 mg/kg.
With `COc1cc(NS(=O)(=O)N2CCOCC2)cc(OC)c1OC` [compound 791], the change in vivo at 500 mg/kg in data set [1] was -53%; in data set [3], 200%. This molecule also registered an LD50 in data set [4] (po) of more than 5000 mg/kg.
Take `COc1cc(CNC(=O)Nc2cc(OC)c(OC)c(OC)c2)cc(OC)c1OC` [compound 798]: the change in vivo at 500 mg/kg in data set [1] is -20%; in data set [3], 145%. The responders at 500 mg/kg in data set [5] is 40%. The molecule further had an LD50 in data set [4] (po) of more than 5000 mg/kg.
As for `COc1cc(NC(=O)N2CCSCC2)cc(OC)c1OC` [compound 804], the change in vivo at 500 mg/kg in data set [1] is -24%; in data set [3], 120%. For the same molecule, the LD50 in data set [4] (po) is more than 5000 mg/kg.
Consider `COc1cc(NC(=O)NN2CCOCC2)cc(OC)c1OC` [compound 807], for which the change in vivo at 250 mg/kg in data set [1] was -33%; in data set [3], 98%. Moreover, in data set [4] (po), the LD50 amounted to 2500 mg/kg.
Regarding `CCN(CC)C(=O)Nc1cc(OC)c(OC)c(OC)c1` [compound 809], the change in vivo at 300 mg/kg is -78% in data set [1] (300 mg/kg p.o.) and 157% in data set [3] (300 mg/kg p.o.). Besides, the responders at 300 mg/kg in data set [5] (300 mg/kg p.o.) was 80%. In data set [4] (po), this molecule registered an LD50 of 3000 mg/kg.
As to `COc1cc(NC(=O)N2CCCC2)cc(OC)c1OC` [compound 810], the change in vivo at 375 mg/kg in data set [1] was -38%; in data set [3], 148%. Further, the responders at 375 mg/kg in data set [5] (375 mg/kg p.o.) was determined as 70%. In data set [4] (po), this molecule gave an LD50 of 3750 mg/kg.
For `COc1cc(NC(=O)CCN2CCOCC2)cc(OC)c1OC` [compound 817], the change in vivo at 500 mg/kg in data set [1] was -17%; in data set [3], 300%. Moreover, in data set [5], the responders at 500 mg/kg came out at 40%. In data set [4] (po), this molecule showed an LD50 of 5000 mg/kg.
`COc1cc(NC(=O)OCCN2CCOCC2)cc(OC)c1OC` [compound 818]: the change in vivo at 350 mg/kg in data set [1] (350 mg/kg p.o.) is -33%; in data set [3] (350 mg/kg p.o.) it was 180%. Moreover, the LD50 in data set [4] worked out at 3500 mg/kg.
Molecule `COc1cc(NCC(=O)N2CCN(c3ccccc3)CC2)cc(OC)c1OC` [compound 837] registered an LD50 in data set [4] (po) of more than 5000 mg/kg.
In turn, `COc1cc(NC(=O)CN2CCN(c3cccc(C(F)(F)F)c3)CC2)cc(OC)c1OC` [compound 838] returned a median lethal dose (LD50) in data set [4] (po) of more than 5000 mg/kg.
The molecule `COc1cc(NC(=O)N2CCN(C(=O)Nc3cc(OC)c(OC)c(OC)c3)CC2)cc(OC)c1OC` [compound 840] showed an LD50 in data set [4] (po) of more than 5000 mg/kg.
On the same count and under the same terms, to `COc1cc(NC(=O)CCN2CCN(c3cccc(C(F)(F)F)c3)CC2)cc(OC)c1OC` [compound 841] belongs more than 5000 mg/kg.
With `COc1cc(NC(=O)CN2CCN(CC(=O)Nc3cc(OC)c(OC)c(OC)c3)CC2)cc(OC)c1OC` [compound 848], the LD50 in data set [4] (po) is more than 5000 mg/kg.
